The source of these data is patent US10174035B2, “6-morpholinyl-2-pyrazolyl-9H-purine derivatives and their use as PI3K inhibitors” (Daiichi Sankyo Company, Limited, priority 2015, dated 2019).

≈ marks a conversion by molar mass, not a printed value. Like-named read-outs stand apart in the source and are kept apart here.

One data set deals with PI3Kγ (Homo sapiens (Human), UniProt P48736). The experiment in a line: In vitro enzyme assay (Kinase-Glo), selectivity, PI3Kγ. In kind it is biochemical. The following applies: enzyme 2.29 μg/mL; ATP 10 μM; PIP2 60 μM; 2 hours. Background: Kinase-Glo measures the ATP left after a reaction by luminescence.
Chain of PI3Kγ (P48736 whole entry, species assumed, canonical isoform): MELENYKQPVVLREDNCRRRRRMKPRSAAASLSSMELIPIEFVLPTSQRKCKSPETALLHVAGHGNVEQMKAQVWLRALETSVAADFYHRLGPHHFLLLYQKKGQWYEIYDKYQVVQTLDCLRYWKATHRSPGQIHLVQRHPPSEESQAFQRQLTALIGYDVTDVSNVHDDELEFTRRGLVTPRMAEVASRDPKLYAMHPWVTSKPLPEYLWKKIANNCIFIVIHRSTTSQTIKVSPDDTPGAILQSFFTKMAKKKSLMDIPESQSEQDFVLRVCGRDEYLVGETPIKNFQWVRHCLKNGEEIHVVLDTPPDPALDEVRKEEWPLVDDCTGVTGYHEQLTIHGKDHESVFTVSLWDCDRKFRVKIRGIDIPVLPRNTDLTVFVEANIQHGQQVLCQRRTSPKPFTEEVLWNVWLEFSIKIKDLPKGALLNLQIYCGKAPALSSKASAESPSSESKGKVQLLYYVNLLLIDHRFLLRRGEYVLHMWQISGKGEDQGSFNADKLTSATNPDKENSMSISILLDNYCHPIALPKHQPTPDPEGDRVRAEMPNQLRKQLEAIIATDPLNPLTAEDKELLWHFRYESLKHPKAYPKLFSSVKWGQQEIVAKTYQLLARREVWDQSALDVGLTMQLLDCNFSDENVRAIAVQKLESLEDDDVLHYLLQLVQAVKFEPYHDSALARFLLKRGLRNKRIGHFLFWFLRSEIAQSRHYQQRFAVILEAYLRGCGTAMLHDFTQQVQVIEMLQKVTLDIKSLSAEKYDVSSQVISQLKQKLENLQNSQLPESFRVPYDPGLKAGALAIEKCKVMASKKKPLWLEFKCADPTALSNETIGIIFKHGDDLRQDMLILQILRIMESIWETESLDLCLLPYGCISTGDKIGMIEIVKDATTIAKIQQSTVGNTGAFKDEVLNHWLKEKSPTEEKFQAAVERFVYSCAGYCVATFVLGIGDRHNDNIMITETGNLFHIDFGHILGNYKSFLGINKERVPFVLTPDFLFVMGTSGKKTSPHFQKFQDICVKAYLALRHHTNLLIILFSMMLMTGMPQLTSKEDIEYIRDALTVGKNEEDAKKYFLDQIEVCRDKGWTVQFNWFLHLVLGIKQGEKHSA
In data set [1] the target is recombinant PI3K δ enzyme (Homo sapiens (Human), UniProt O00329). The experiment in a line: In vitro enzyme assay (Kinase-Glo luminescent kinase assay), PI3Kδ. In kind it is biochemical. An outline of the steps: (§1)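 Each recombinant human PI3K isoform at 2.29 μg/mL with 60 μM PIP2 and 10 μM ATP in HEPES pH 7.4, NaCl, CHAPS, MgCl2, DTT, 2 hours at room temperature. Remaining ATP read by Kinase-Glo luminescence relative to no-enzyme blanks.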
Chain of recombinant PI3K δ enzyme (O00329 whole entry, species assumed, canonical isoform): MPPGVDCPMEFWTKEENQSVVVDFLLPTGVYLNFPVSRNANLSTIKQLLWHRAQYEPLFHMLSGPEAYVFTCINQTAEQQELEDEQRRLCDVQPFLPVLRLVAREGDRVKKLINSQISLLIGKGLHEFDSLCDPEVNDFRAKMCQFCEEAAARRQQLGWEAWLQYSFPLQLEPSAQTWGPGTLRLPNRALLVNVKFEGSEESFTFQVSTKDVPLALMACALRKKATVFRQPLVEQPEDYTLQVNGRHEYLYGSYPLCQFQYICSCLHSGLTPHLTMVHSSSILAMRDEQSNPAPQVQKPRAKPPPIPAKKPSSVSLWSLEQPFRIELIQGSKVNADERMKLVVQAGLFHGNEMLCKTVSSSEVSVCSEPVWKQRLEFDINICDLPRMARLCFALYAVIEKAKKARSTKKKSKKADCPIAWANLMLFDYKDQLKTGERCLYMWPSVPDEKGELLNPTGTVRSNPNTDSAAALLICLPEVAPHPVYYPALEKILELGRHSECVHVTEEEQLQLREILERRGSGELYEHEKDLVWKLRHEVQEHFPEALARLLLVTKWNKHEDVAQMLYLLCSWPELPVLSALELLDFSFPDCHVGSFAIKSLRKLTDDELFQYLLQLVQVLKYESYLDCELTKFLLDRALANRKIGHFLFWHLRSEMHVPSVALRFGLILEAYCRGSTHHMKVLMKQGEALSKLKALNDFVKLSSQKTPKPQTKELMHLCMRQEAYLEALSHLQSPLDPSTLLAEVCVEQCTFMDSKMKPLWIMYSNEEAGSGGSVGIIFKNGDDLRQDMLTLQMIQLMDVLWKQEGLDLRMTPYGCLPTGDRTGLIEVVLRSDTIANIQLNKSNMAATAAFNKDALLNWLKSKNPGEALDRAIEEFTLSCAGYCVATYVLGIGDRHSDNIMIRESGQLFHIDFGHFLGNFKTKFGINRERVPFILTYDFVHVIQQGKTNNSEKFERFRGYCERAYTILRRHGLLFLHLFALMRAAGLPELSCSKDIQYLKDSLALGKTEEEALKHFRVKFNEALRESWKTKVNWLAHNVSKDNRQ
Chain of recombinant PI3K δ enzyme (P27986 whole entry partner, species assumed, canonical isoform): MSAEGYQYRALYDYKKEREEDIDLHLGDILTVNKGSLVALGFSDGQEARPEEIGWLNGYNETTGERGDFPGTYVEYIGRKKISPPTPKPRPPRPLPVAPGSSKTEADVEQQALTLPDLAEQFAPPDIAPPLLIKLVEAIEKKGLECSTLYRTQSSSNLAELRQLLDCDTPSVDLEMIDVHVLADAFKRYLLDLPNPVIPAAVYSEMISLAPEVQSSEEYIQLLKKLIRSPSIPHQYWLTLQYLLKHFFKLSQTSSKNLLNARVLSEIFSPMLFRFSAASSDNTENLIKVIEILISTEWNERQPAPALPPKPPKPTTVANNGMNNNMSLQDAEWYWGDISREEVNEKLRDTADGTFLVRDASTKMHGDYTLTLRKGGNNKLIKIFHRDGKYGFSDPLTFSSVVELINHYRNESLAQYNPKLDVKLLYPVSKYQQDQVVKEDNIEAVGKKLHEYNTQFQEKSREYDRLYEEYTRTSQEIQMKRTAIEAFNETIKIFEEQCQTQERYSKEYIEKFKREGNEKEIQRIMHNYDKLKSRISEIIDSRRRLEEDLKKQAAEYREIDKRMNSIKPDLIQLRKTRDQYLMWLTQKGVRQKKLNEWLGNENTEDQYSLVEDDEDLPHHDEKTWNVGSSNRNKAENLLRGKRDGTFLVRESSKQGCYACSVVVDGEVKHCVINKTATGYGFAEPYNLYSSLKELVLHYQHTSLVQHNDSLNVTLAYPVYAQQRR

For data set [2], the system named is eosinophil count in bronchoalveolar lavage fluid. Description: Ovalbumin-induced airway eosinophilia model in Brown Norway rats. It counts as in vivo. The following applies: oral, bid; absolute eosinophil count in BAL fluid. As to the method:
The protocols were followed in similar fashion as described in Clin. Exp. Immunol., 2001; 126:9-15 and J. Pharmacol. Exp. Ther., 2011; 337:145-54. Male Brown Norway rats were sensitized by intraperitoneal injection of a suspension of 1 mg of ovalbumin and 100 mg of aluminum hydroxide (in sterile 0.9% saline) on day 0 and 7. On day 14, the compounds were administered to the rats by oral gavage. One hour after oral administration, the animals were placed into a perspex chamber and exposed to an aerosol of 5% ovalbumin for ten minutes. Compounds were administered on Day 14 and Day 15 either once or twice daily. Forty-eight hours after ovalbumin challenge, the animals were euthanized and bronchoalveolar lavage fluid was collected. The cell suspensions were processed and absolute eosinophil count was enumerated.

Another data set has as its target PI3Kβ (Homo sapiens (Human), UniProt P42338). Description: In vitro enzyme assay (Kinase-Glo), selectivity, PI3Kβ. In kind it is biochemical. The following applies: enzyme 2.29 μg/mL; ATP 10 μM; PIP2 60 μM; 2 hours. The procedure, abridged:
as §1

In data set [3] the test system is IFN-γ release in mouse splenocytes. Description: Phytohaemagglutinin (PHA)-induced interferon (IFN)-gamma release in mouse splenocytes. The following applies: Splenocyte, PHA (10 μg/ml) for 48 hours, IFN-γ by ELISA, read-out: Cell Based IC50. Details: species or system C57BL/6 mouse. On the technique in general: ELISA stands for enzyme-linked immunosorbent assay.
A further data set has as its target PI3Kα (Homo sapiens (Human), UniProt P42336). The experiment in a line: In vitro enzyme assay (Kinase-Glo), selectivity, PI3Kα. It counts as biochemical. The following applies: enzyme 2.29 μg/mL; ATP 10 μM; PIP2 60 μM; 2 hours. The procedure, abridged: as §1
Data set [4] concerns eosinophil count in bronchoalveolar lavage fluid. The experiment in a line: House dust mite (HDM) induced chronic asthma model in Balb/c mice. It counts as in vivo. The following applies: oral twice daily from week 3 to week 5; absolute eosinophil count in BAL fluid. The protocol: The protocol was followed as described in Am. J. Respir. Crit. Care Med., 2004; 169: 378-385. Female Balb/c mice were exposed to purified HDM (Dermatophagoides pteronyssinus) extract, intranasally (25 μg of protein in 20 μl of saline) for 5 days/week for up to five consecutive weeks. Compounds were administered orally twice daily from week 3 to week 5. Forty-eight hours after last HDM exposure, the animals were euthanized and bronchoalveolar lavage fluid was collected. The cell suspensions were processed and absolute eosinophil count was enumerated.

Data set [5] is described as follows: Solubility in Japanese Pharmacopeia First Fluid (JP1) and Second Fluid (JP2). It counts as physicochemical. The following applies: thermodynamic from solid, room temperature. The protocol:
A 10 mmol/L solution of the test compound was prepared in DMSO and dispensed 100 μL of 10 mmol/L DMSO stock solutions into labeled glass tubes in duplicate, one for Japanese Pharmacopeia First Fluid (JP1) and second for Japanese Pharmacopeia Second Fluid (JP2). After evaporation of DMSO from each tube, 500 μL of JP1 and JP2 fluid were added in each tube, respectively. These tubes were sonicated for 1 minute and placed on shaker for 30 minutes with an interval of 30 seconds at every 5 minute. Tubes were placed in dark at room temperature for 1 hour and solution was filtered through membrane filter. The filtrate was diluted 2-fold and 10-fold. The resulting test solutions was analyzed and quantified against the standards using UPLC (standard preparation-10 mmol/L solution in DMSO is serially diluted with 50% aqueous acetonitrile solution to prepare 2 solutions; 100 μmol/L standard solution and 5 μmol/L standard solution).

Where [6] appears, read: pH 1.2, simulated gastric fluid, Japanese Pharmacopeia First Fluid (JP1), read-out: Solubility JP1.
[7] abbreviates: pH 6.8, aqueous buffer, Japanese Pharmacopeia Second Fluid (JP2), read-out: Solubility JP2.

Chain of PI3Kα (P42336 whole entry, species assumed): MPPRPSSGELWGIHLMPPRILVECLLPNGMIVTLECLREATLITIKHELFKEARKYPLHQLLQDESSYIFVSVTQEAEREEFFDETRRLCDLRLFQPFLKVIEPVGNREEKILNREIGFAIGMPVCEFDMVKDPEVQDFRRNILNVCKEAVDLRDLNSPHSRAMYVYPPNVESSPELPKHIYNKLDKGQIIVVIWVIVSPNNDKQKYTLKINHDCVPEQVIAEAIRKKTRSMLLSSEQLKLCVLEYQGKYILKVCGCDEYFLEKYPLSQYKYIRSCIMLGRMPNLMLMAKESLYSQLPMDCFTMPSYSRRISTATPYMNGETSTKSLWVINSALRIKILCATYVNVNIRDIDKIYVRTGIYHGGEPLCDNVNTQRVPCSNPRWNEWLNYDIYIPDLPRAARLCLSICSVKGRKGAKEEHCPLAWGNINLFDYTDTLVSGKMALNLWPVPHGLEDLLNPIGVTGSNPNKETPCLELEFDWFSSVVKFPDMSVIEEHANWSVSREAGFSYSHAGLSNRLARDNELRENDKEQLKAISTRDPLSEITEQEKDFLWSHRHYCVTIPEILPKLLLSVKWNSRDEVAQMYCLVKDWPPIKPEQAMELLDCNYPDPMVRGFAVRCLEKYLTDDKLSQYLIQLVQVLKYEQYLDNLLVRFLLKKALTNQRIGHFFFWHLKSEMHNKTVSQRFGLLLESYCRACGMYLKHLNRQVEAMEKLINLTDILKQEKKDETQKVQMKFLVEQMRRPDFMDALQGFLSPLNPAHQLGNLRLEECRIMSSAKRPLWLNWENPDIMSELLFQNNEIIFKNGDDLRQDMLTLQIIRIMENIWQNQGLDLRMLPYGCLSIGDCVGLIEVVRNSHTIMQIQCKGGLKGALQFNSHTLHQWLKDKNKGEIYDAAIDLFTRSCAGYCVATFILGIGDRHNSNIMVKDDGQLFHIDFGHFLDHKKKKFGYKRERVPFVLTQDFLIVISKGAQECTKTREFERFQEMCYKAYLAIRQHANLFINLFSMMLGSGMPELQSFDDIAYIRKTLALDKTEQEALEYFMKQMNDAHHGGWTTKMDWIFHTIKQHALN
Chain of PI3Kα (P27986 whole entry partner, species assumed): as the sequence (P27986 whole entry partner, species assumed, canonical isoform) above
Chain of PI3Kβ (P42338 whole entry, species assumed): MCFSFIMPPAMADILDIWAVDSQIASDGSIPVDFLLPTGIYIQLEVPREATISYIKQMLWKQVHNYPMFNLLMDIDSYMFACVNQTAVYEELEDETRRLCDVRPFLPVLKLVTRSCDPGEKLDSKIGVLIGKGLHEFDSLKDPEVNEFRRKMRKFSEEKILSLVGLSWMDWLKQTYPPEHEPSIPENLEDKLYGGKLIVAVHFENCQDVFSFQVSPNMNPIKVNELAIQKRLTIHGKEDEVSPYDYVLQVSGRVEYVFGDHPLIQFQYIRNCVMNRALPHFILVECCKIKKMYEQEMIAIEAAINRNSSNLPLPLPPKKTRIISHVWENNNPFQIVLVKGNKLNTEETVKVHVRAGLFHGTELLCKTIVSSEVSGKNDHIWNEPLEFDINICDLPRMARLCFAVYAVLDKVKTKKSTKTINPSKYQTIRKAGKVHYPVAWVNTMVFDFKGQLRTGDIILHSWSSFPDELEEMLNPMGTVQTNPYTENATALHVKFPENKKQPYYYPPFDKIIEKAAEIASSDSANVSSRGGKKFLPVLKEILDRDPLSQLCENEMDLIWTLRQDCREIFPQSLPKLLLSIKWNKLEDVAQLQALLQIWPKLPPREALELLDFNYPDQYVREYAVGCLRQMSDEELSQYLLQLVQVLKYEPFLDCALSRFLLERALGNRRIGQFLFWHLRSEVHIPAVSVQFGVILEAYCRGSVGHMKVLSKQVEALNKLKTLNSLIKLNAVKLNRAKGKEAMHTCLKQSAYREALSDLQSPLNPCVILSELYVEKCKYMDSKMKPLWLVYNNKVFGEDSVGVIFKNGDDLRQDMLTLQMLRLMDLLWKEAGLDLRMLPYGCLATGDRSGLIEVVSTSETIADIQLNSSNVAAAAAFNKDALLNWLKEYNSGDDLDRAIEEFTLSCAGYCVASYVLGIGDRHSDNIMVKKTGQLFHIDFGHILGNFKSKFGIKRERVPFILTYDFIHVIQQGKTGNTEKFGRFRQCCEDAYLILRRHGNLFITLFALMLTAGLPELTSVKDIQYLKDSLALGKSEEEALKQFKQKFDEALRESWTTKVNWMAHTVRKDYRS
Chain of PI3Kβ (P27986 whole entry partner, species assumed): as the sequence (P27986 whole entry partner, species assumed, canonical isoform) above

By IC50 is commonly meant the concentration that inhibits the measured activity by half. For orientation: solubility means the dissolved amount per volume that the medium holds. With `Cn1cc(-c2nc(N3CCOCC3)c3nc(C(=O)N4CCC(N5CCOCC5)CC4)[nH]c3n2)cn1` [Compound No. 58, [2-(1-methyl-1H-pyrazol-4-yl)-6-(morpholin-4-yl)-9H-purin-8-yl][4-(morpholin-4-yl)piperidin-1-yl]methanone], the IC50 against PI3Kγ is above 1 µM; in data set [1], 0.014 µM; in data set [1] (enzyme 2.29 μg/mL, ATP 10 μM, PIP2 60 μM, 2 hours), 0.014 µM; against PI3Kβ, above 10 µM; in data set [3] it was 0.006 µM; at PI3Kα it was above 1 µM. Further, the ED50 in data set [2] was 0.3 mg/kg, bid; in data set [4], 0.1 mg/Kg, bid. Besides, the solubility at 30 min was above 1200 µg/mL in data set [5] (setting [6]) and 170 µg/mL (≈ 353 µM) in data set [5] (setting [7]).

For the molecule `C[C@@H]1CN(C2CCN(C(=O)c3nc4c(N5CCOCC5)nc(-c5cnn(C)c5)nc4[nH]3)CC2)C[C@H](C)O1` [compound 5, {4-[cis-2,6-Dimethylmorpholin-4-yl]piperidin-1-yl}[2-(1-methyl-1H-pyrazol-4-yl)-6-(morpholin-4-yl)-9H-purin-8-yl]methanone], the results for the IC50 (at PI3Kγ; in data set [3]; against PI3Kα) were 1.18 µM, 0.111 µM and above 1 µM, respectively. Moreover, the ED50 in data set [4] is reported as 1.6 mg/Kg, bid. Moreover, the solubility at 30 min in data set [5] (setting [6]) was 834 µg/mL (≈ 1640 µM); in data set [5] (setting [7]) it was 286 µg/mL (≈ 561 µM).
